From US20100304363A1 (E[…] TELECOMM[…] INSTITUTE, priority 2009, published 2010)

Key:
[1] = system: M-Type antigen (SARS coronavirus protein antigen, ProSci); type: binding
[2] = system: E-type antigen (SARS coronavirus protein antigen, ProSci); type: binding

| Substance | M (mean value) [1] | M-Type Ranking [1] | E Value [2] | E-Type Ranking [2] |
| --- | --- | --- | --- | --- |
| Asp-Cys | 0.114 | 5 | 0.238 | 5 |
| Trp-Gln | 0.073 | 19 | 0.155 | 15 |
| Cys-Asp | 0.144 | 3 | 0.326 | 4 |
| Val-Met | 0.094 | 7 | 0.151 | 18 |
| Phe-Phe | 0.059 | 28 | 0.116 | 29 |
| Glu-Ser | 0.111 | 6 | 0.198 | 6 |
| Leu-Val | 0.088 | 10 | 0.147 | 21 |
| Ser-Asp | 0.091 | 9 | 0.136 | 23 |
| Gln-Trp | 0.093 | 8 | 0.166 | 12 |
| Ser-Glu | 0.073 | 20 | 0.135 | 24 |
| Ile-Met | 0.074 | 18 | 0.139 | 22 |
| Arg-Phe | 0.072 | 21 | 0.183 | 9 |
| Lys-Phe | 0.080 | 14 | 0.154 | 16 |
| Phe-Met | 0.059 | 29 | 0.190 | 8 |
| Phe-Arg | 0.080 | 13 | 0.167 | 11 |
| Phe-Tyr | 0.078 | 15 | 0.127 | 26 |
| Phe-Leu | 0.061 | 27 | 0.198 | 6 |
| Glu-Asp | 0.186 | 1 | 0.552 | 1 |
| Trp-Phe | 0.069 | 23 | 0.148 | 20 |
| Cys-Glu | 0.143 | 4 | 0.356 | 3 |
| Ala-Ile | 0.057 | 30 | 0.154 | 17 |
| Ser-Cys | 0.087 | 12 | 0.149 | 19 |
| Asp-Ser | 0.087 | 11 | 0.132 | 25 |
| Tyr-Trp | 0.063 | 26 | 0.090 | 30 |
| Cys-Phe | 0.069 | 24 | 0.165 | 13 |
| Val-Ala | 0.077 | 17 | 0.118 | 28 |
| Phe-Trp | 0.071 | 22 | 0.159 | 14 |
| Asp-Glu | 0.169 | 2 | 0.520 | 2 |
| Tyr-Gln | 0.069 | 25 | 0.122 | 27 |
